Laboratory results taken from PubChem BioAssay AID2060885 (Molecular Pharmacology Branch, DTP, NCI, 2025).

Tested on: NCI-H23 complex spheroids with HUVEC/MSC, viability
Experiment: Anticancer human tumor NCI-H23 cell line growth inhibition [RAS];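 also: spheroids exposed to compound for 7 days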;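 as to viability, T/C: 100% = DMSO vehicle control viability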
Details: for IC50: curve of first compound; for viability, T/C: stronger effect = lower value; active = viability on the fitted dose curve at most 10% of control; inactive = the rest
Procedure, shortened: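 Agents were tested in combination matrices in half-log decrements from a top concentration at or near clinical Cmax (10 microM if undetermined). Targets were multi-cell spheroids of tumour lines plus HUVEC and MSC stromal cells.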

[1] = second compound 0.000949 µM, first compound 0.0316 µM
[2] = second compound 0.000949 µM, first compound 0.1 µM
[3] = second compound 0.000949 µM, first compound 0.316 µM
[4] = second compound 0.000949 µM, first compound 1 µM
[5] = second compound 0.000949 µM, first compound 3.16 µM
[6] = second compound 0.000949 µM, first compound 10 µM
[7] = second compound 0.003 µM, first compound 0.0316 µM
[8] = second compound 0.003 µM, first compound 0.1 µM
[9] = second compound 0.003 µM, first compound 0.316 µM
[10] = second compound 0.003 µM, first compound 1 µM
[11] = second compound 0.003 µM, first compound 3.16 µM
[12] = second compound 0.003 µM, first compound 10 µM
[13] = second compound 0.00949 µM, first compound 0.0316 µM
[14] = second compound 0.00949 µM, first compound 0.1 µM
[15] = second compound 0.00949 µM, first compound 0.316 µM
[16] = second compound 0.00949 µM, first compound 1 µM
[17] = second compound 0.00949 µM, first compound 3.16 µM
[18] = second compound 0.00949 µM, first compound 10 µM
[19] = second compound 0.03 µM, first compound 0.0316 µM
[20] = second compound 0.03 µM, first compound 0.1 µM
[21] = second compound 0.03 µM, first compound 0.316 µM
[22] = second compound 0.03 µM, first compound 1 µM
[23] = second compound 0.03 µM, first compound 3.16 µM
[24] = second compound 0.03 µM, first compound 10 µM
[25] = second compound 0.0949 µM, first compound 0.0316 µM
[26] = second compound 0.0949 µM, first compound 0.1 µM
[27] = second compound 0.0949 µM, first compound 0.316 µM
[28] = second compound 0.0949 µM, first compound 1 µM
[29] = second compound 0.0949 µM, first compound 3.16 µM
[30] = second compound 0.0949 µM, first compound 10 µM
[31] = second compound 0.3 µM, first compound 0.0316 µM
[32] = second compound 0.3 µM, first compound 0.1 µM
[33] = second compound 0.3 µM, first compound 0.316 µM
[34] = second compound 0.3 µM, first compound 1 µM
[35] = second compound 0.3 µM, first compound 3.16 µM
[36] = second compound 0.3 µM, first compound 10 µM

CC(Nc1ccc2c(c1)OCCn1cc(N3C(=O)OCC3C(F)F)nc1-2)C(N)=O (centres undefined) + CCn1c(-c2cccnc2C(C)OC)c2c3cc(ccc31)N1CCOC(CC(NC(=O)C(C(C)C)N(C)C(=O)C3(F)CCN(C(=O)C#CC(C)(C)N(C)C)CC3)C(=O)N3CCCC(N3)C(=O)OCC(C)(C)C2)C1
inactive: viability, T/C [1] 29.1% | viability, T/C [2] 22.3% | viability, T/C [3] 21% | viability, T/C [4] 23.1% | viability, T/C [5] 21.2% | viability, T/C [6] 14% | viability, T/C [7] 28.8% | viability, T/C [8] 23.6% | viability, T/C [9] 19.2% | viability, T/C [10] 21% | viability, T/C [11] 21.1% | viability, T/C [12] 13.9% | viability, T/C [13] 28.1% | viability, T/C [14] 21.2% | viability, T/C [15] 20.8% | viability, T/C [16] 19.1% | viability, T/C [17] 18.2% | viability, T/C [18] 14.7% | viability, T/C [19] 23.1% | viability, T/C [20] 24.4% | viability, T/C [21] 20.3% | viability, T/C [22] 18.3% | viability, T/C [23] 17% | viability, T/C [24] 16% | viability, T/C [25] 24.7% | viability, T/C [26] 21.1% | viability, T/C [27] 22.5% | viability, T/C [28] 20.7% | viability, T/C [29] 13.8% | viability, T/C [30] 16.6% | viability, T/C [31] 22.4% | viability, T/C [32] 21.3% | viability, T/C [33] 20.1% | viability, T/C [34] 15% | viability, T/C [35] 16.7% | viability, T/C [36] 14.9%
< 0.0316 µM: IC50 (second compound 0.000949 µM) | IC50 (second compound 0.003 µM) | IC50 (second compound 0.00949 µM) | IC50 (second compound 0.03 µM) | IC50 (second compound 0.0949 µM) | IC50 (second compound 0.3 µM)

NC1c2ccccc2OC12CCN(c1cnc3c(N4CCCc5ncccc54)n[nH]c3n1)CC2 (centres undefined) + CCn1c(-c2cc(N3CCN(C)CC3)cnc2C(C)OC)c2c3cc(ccc31)-c1csc(n1)CC(NC(=O)C1CC1C)C(=O)N1CCCC(N1)C(=O)OCC(C)(C)C2
inactive: viability, T/C [1] 29% | viability, T/C [2] 22.1% | viability, T/C [3] 15.2% | viability, T/C [4] 15.1% | viability, T/C [5] 10.4% | viability, T/C [7] 23.4% | viability, T/C [8] 15.7% | viability, T/C [9] 12.3% | viability, T/C [13] 19.4% | viability, T/C [14] 13.9% | viability, T/C [19] 15.7% | viability, T/C [20] 12.8% | viability, T/C [25] 12.9% | viability, T/C [31] 11%
< 0.0316 µM: IC50 (second compound 0.000949 µM) | IC50 (second compound 0.003 µM) | IC50 (second compound 0.00949 µM) | IC50 (second compound 0.03 µM) | IC50 (second compound 0.0949 µM) | IC50 (second compound 0.3 µM)
active: viability, T/C [6] 7.21% | viability, T/C [10] 8.99% | viability, T/C [11] 8.38% | viability, T/C [12] 5.79% | viability, T/C [15] 9.85% | viability, T/C [16] 7.3% | viability, T/C [17] 5.1% | viability, T/C [18] 5.27% | viability, T/C [21] 8.98% | viability, T/C [22] 5.94% | viability, T/C [23] 4.97% | viability, T/C [24] 5.95% | viability, T/C [26] 9.83% | viability, T/C [27] 6.34% | viability, T/C [28] 5.78% | viability, T/C [29] 4.29% | viability, T/C [30] 6.19% | viability, T/C [32] 7.93% | viability, T/C [33] 6.42% | viability, T/C [34] 4.7% | viability, T/C [35] 4.58% | viability, T/C [36] 5.26%
